Patent US20170158735A1, “METHOD FOR PRODUCING A RECOMBINANT PEPTIDE AND RESULTANT PEPTIDE” ("IVIX" Ltd., priority 2012, published 2017)
Ends that are not written are not given here.

System: sexual behavior of female rats
Test: Lordosis test: sexual behavior of ovariectomized hormonally stimulated female rats with a sexually active male
Type: in vivo, rat
Settings: for Effect on sexual motivation / reproductive- and sexual-function stimulating activity (in words): lordosis model, female rats, 100 μg/rat; for Percentage of lordoses / Number of acts of proceptive behavior: ovariectomized hormonally stimulated female rats, progesterone 0.5 mg/rat, test product 100 μg/rat; for Percentage of lordoses: negative control 0.73 ± 0.12; for Number of acts of proceptive behavior: negative control 14 ± 4
Protocol: Sexual behavior was recorded in ovariectomized hormonally stimulated females in direct contact with the sexually active male, or when such a contact was impossible. […]
Sexual behavior was recorded in ovariectomized hormonally stimulated females in direct contact with the sexually active male, or when such a contact was impossible.

Thr-Lys-Pro-Arg (TKPR)
Effect on sexual motivation / reproductive- and sexual-function stimulating activity (in words): lack of sexual motivation effect

Thr-Lys-Pro-Arg-Pro (TKPRP)
Percentage of lordoses (Table 5 / Example 9): 0.99 ± 0.09
Effect on sexual motivation / reproductive- and sexual-function stimulating activity (in words): intensification of sexual motivation

Pro-Arg-Pro-Gly-Pro (PRPGP)
Percentage of lordoses (Table 4 / Example 8): 0.73 ± 0.14
Number of acts of proceptive behavior (Table 4 / Example 8): 14 ± 6 acts

Thr-Lys-Pro-Phe (TKPF)
Effect on sexual motivation / reproductive- and sexual-function stimulating activity (in words): lack of sexual motivation effect

Pro-Gly-Pro (PGP)
Percentage of lordoses (Table 4 / Example 8): 0.74 ± 0.09
Number of acts of proceptive behavior (Table 4 / Example 8): 13 ± 5 acts

Arg-Pro-Gly-Pro (RPGP)
Percentage of lordoses (Table 4 / Example 8): 0.69 ± 0.14
Number of acts of proceptive behavior (Table 4 / Example 8): 15 ± 4 acts

Thr-Lys-Pro (TKP)
Percentage of lordoses (Table 4 / Example 8): 0.97±0.12
Number of acts of proceptive behavior (Table 4 / Example 8): 29±6 acts
Percentage of lordoses (Table 5 / Example 9): 0.96 ± 0.12
Effect on sexual motivation / reproductive- and sexual-function stimulating activity (in words): intensification of sexual motivation

TKPRPF
Percentage of lordoses (Table 5 / Example 9): 0.94 ± 0.14
Effect on sexual motivation / reproductive- and sexual-function stimulating activity (in words): intensification of sexual motivation
